Where two headings read alike, the source gives them in different places.
Tests used:
F508del/F508del CFTR = target: T1, F508del/F508del CFTR (Homo sapiens, UniProt P13569, DEL508-508); experiment: Trans-Epithelial Current Clamp (TECC) assay using primary human bronchial epithelial cells; format: cell-based; settings: for Emax (% Dual): maximum percent activity relative to positive control (co-corrector 0.15 μM + potentiator 0.45 μM = 100%), primary hBE cells F508del/F508del; for EC50: primary hBE cells homozygous F508del/F508del, test C2 corrector with co-corrector and potentiator, 18-24 hours at 37° C., equivalent CFTR current (IEQ)/AUC
T1 construct: cells isolated from CF patients with the homozygous mutation; endogenous in cells; host or cells: primary human bronchial epithelial (hBE) cells from CF patients homozygous for F508del
Procedure, shortened: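 F508del/F508del primary hBE cells grown 35 days at air-liquid interface were treated basolaterally with C2 correctors plus fixed co-corrector and potentiator for 18-24 h at 37° C. TECC-24 current clamp at 36.5° C in HEPES-buffered F-12 Coon's, pH 7.4; equivalent current IEQ=VT/RT, plus AUC between forskolin peak and bumetanide.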

F508delCFTR = target: T2, F508delCFTR (Homo sapiens, UniProt P13569, DEL508-508); experiment: Cell Surface Expression-Horse Radish Peroxidase (CSE-HRP) assay in CFBE41o-F508delCFTR-HRP cells; format: cell-based; settings: for EC50: CFBE41o-F508delCFTR-HRP cells, 18-24 hours at 33° C., luminescence; for Maximum % activity (without co-corrector) / Maximum % activity (with co-corrector): normalized to on-plate positive control corrector (2 μM)
T2 construct: expressed in transfected cells; host or cells: CFBE41o- human lung-derived epithelial cell line, doxycycline-inducible expression
Procedure, shortened: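 CFBE41o- cells expressing F508delCFTR with HRP in the fourth exofacial loop were doxycycline-induced (0.5 μg/mL) for 68–72 h, then exposed to correctors for 18–24 h at 33 °C, with or without 2 μM co-corrector. Surface HRP was read by luminol luminescence, and % activity was normalized to the on-plate positive control; EC50 came from a variable-slope sigmoidal fit (8 points, 3-fold dilution, 20 or 30 μM top).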

[1] = with co-corrector (2 μM), read-out: EC50 (with co-corrector)
[2] = without co-corrector, read-out: EC50 (without co-corrector)

T2 sequence (P13569 with tags, fused parts or gaps DEL508-508): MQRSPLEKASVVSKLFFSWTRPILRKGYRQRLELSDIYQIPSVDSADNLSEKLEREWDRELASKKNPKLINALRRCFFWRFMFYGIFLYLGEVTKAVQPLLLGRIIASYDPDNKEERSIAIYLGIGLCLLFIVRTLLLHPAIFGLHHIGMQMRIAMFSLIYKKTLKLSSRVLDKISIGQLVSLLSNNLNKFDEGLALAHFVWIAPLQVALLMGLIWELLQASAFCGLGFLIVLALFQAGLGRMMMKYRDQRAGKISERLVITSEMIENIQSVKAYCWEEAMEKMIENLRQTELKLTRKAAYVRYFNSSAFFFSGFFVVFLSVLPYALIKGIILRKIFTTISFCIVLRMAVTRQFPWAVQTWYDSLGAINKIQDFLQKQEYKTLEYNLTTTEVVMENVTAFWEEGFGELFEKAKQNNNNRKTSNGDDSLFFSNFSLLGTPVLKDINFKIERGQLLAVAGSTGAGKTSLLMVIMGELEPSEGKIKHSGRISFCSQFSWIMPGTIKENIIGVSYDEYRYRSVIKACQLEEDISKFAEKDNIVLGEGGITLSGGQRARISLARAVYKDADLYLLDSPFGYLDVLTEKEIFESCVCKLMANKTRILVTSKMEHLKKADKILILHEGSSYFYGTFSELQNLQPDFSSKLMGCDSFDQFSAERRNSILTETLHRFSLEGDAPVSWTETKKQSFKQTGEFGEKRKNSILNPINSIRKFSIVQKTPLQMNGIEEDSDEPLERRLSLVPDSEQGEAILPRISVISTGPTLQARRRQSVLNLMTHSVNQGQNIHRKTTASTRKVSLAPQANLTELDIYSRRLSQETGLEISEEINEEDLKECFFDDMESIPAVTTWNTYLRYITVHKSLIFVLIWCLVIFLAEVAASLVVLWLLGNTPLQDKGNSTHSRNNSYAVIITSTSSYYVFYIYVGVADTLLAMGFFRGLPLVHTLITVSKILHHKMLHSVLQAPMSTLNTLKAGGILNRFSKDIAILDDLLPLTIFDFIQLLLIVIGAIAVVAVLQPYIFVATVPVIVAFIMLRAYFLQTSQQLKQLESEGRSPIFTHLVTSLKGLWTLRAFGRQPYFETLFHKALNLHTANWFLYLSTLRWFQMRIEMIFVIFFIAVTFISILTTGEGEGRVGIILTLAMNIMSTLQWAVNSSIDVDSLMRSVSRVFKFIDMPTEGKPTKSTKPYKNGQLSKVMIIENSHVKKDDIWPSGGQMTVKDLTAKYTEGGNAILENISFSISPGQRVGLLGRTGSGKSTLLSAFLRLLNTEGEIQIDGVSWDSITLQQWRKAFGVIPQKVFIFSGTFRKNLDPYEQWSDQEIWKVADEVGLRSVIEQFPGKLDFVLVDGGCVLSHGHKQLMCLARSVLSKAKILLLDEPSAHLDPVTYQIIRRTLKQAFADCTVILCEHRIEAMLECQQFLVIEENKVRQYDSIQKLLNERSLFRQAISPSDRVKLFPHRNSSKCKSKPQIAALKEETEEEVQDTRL
T1 sequence (P13569 with tags, fused parts or gaps DEL508-508): as above

For `COc1ccc(C)cc1[C@@]1(C(=O)NS(=O)(=O)c2cccc3nc(C)ccc23)C[C@H]1c1cccnc1OC` [Example 49, (1R,2S)-1-(2-methoxy-5-methylphenyl)-2-(2-methoxypyridin-3-yl)-N-(2-methylquinoline-5-sulfonyl)cyclopropane-1-carboxamide], the “Emax (% Dual)” value (F508del/F508del CFTR) was 321 % Dual, the EC50 (F508del/F508del CFTR) was 35.8 nM and the EC50 (F508delCFTR; [1]) was 1170 nM. The EC50 (F508delCFTR; [2]) was 1990 nM and the “Maximum % activity (without co-corrector)” value (F508delCFTR; without co-corrector) was 453%.
In the case of `COc1ccc(C)cc1[C@]1(C(=O)NS(=O)(=O)c2cccc3nc(C)ccc23)C[C@@H]1c1cnc(C)c(F)c1` (single isomer, unassigned) [Example 100], the “Emax (% Dual)” value (F508del/F508del CFTR) is reported as 207 % Dual, the EC50 (F508del/F508del CFTR) is reported as 114 nM and the EC50 (F508delCFTR; [1]) is reported as 2780 nM. For the same compound, the EC50 (F508delCFTR; [2]) was 4490 nM.
With `COc1ccc(C)cc1[C@]1(C(=O)NS(=O)(=O)c2cccc3nc(C)ccc23)C[C@@H]1c1ccc(C(C)C)nc1` [Example 67, (1S,2R)-1-(2-methoxy-5-methylphenyl)-N-(2-methylquinoline-5-sulfonyl)-2-[6-(propan-2-yl)pyridin-3-yl]cyclopropane-1-carboxamide] the “Emax (% Dual)” value (F508del/F508del CFTR) was 174 % Dual, the EC50 (F508del/F508del CFTR) was 20.7 nM and the EC50 (F508delCFTR; [1]) was 1610 nM. For the same compound, the “Maximum % activity (with co-corrector)” value (F508delCFTR; with co-corrector (2 μM)) was 989%, the EC50 (F508delCFTR; [2]) was 3320 nM and the “Maximum % activity (without co-corrector)” value (F508delCFTR; without co-corrector) was 492%.
For `COc1ccc(C)cc1[C@]1(C(=O)NS(=O)(=O)c2cccc3nc(C)ccc23)C[C@@H]1c1cccc(N(C)C)n1` [Example 60, (1S,2S)-2-[6-(dimethylamino)pyridin-2-yl]-1-(2-methoxy-5-methylphenyl)-N-(2-methylquinoline-5-sulfonyl)cyclopropane-1-carboxamide], the “Emax (% Dual)” value (F508del/F508del CFTR) was 413 % Dual, the EC50 (F508del/F508del CFTR) was 6.7 nM and the EC50 (F508delCFTR; [1]) was 1030 nM. For the same compound, the EC50 (F508delCFTR; [2]) was 2140 nM.
For `COc1ccc(C)cc1[C@@]1(C(=O)NS(=O)(=O)c2cccc3nc(C)ccc23)C[C@H]1c1cnc(C)cn1` (single isomer, unassigned) [Example 91], the “Emax (% Dual)” value (F508del/F508del CFTR) was 138 % Dual, the EC50 (F508del/F508del CFTR) was greater than 800 nM and the EC50 (F508delCFTR; [1]) was 4340 nM. The “Maximum % activity (with co-corrector)” value (F508delCFTR; with co-corrector (2 μM)) was 579%, the EC50 (F508delCFTR; [2]) was 5240 nM and the “Maximum % activity (without co-corrector)” value (F508delCFTR; without co-corrector) was 226%.
With `COc1ccc(C)cc1[C@]1(C(=O)NS(=O)(=O)c2cccc3nc(C)ccc23)C[C@@H]1c1cnc(C)cn1` (single isomer, unassigned) [Example 92] the “Emax (% Dual)” value (F508del/F508del CFTR) was 187 % Dual, the EC50 (F508del/F508del CFTR) was 87.6 nM and the EC50 (F508delCFTR; [1]) was 1150 nM. The EC50 (F508delCFTR; [2]) was 2130 nM and the “Maximum % activity (without co-corrector)” value (F508delCFTR; without co-corrector) was 653%.
With `COc1ccc(C)cc1C1(C(=O)NS(=O)(=O)c2cccc3nc(C)ccc23)CC1c1ccc(C(F)(F)F)cc1` (racemic) [Example 5, rac-(1r,2s)-1-(2-methoxy-5-methylphenyl)-N-(2-methylquinoline-5-sulfonyl)-2-[4-(trifluoromethyl)phenyl]cyclopropane-1-carboxamide] the “Emax (% Dual)” value (F508del/F508del CFTR) was 253 % Dual, the EC50 (F508del/F508del CFTR) was 3.5 nM and the EC50 (F508delCFTR; [1]) was 187 nM. The EC50 (F508delCFTR; [2]) was 306 nM and the “Maximum % activity (without co-corrector)” value (F508delCFTR; without co-corrector) was 741%.
With `COc1ccc(C)cc1[C@@]1(C(=O)NS(=O)(=O)c2cccc3nc(C)ccc23)C[C@H]1c1ccc(C(C)C)nc1OC` (single isomer, unassigned) [Example 87] the “Emax (% Dual)” value (F508del/F508del CFTR) was 271 % Dual, the EC50 (F508del/F508del CFTR) was 6.9 nM and the EC50 (F508delCFTR; [1]) was 165 nM. For the same compound, the EC50 (F508delCFTR; [2]) was 452 nM and the “Maximum % activity (without co-corrector)” value (F508delCFTR; without co-corrector) was 881%.
In the case of `COc1cnc([C@H]2C[C@@]2(C(=O)NS(=O)(=O)c2cccc3nc(C)ccc23)c2cc(C)ccc2OC)c(OC)n1` [Example 82, (1S,2S)-2-(3,5-dimethoxypyrazin-2-yl)-1-(2-methoxy-5-methylphenyl)-N-(2-methylquinoline-5-sulfonyl)cyclopropane-1-carboxamide], the “Emax (% Dual)” value (F508del/F508del CFTR) is reported as 210 % Dual, the EC50 (F508del/F508del CFTR) is reported as 52.2 nM and the EC50 (F508delCFTR; [1]) is reported as 351 nM. The EC50 (F508delCFTR; [2]) was 730 nM and the “Maximum % activity (without co-corrector)” value (F508delCFTR; without co-corrector) was 937%.
For `COc1ccc(C)cc1[C@@]1(C(=O)NS(=O)(=O)c2cccc3nc(C)ccc23)C[C@H]1c1ccccc1F` (racemic) [Example 22, rac-(1r,2r)-2-(2-fluorophenyl)-1-(2-methoxy-5-methylphenyl)-N-(2-methylquinoline-5-sulfonyl)cyclopropane-1-carboxamide], the “Emax (% Dual)” value (F508del/F508del CFTR) was 268 % Dual, the EC50 (F508del/F508del CFTR) was 9 nM and the EC50 (F508delCFTR; [1]) was 844 nM. It also gave an EC50 (F508delCFTR; [2]) of 929 nM.
With `COc1ccc(C)cc1[C@]1(C(=O)NS(=O)(=O)c2cccc3nc(C)ccc23)C[C@@H]1c1ccccn1` [Example 14, (1S,2S)-1-(2-methoxy-5-methylphenyl)-N-(2-methylquinoline-5-sulfonyl)-2-(pyridin-2-yl)cyclopropane-1-carboxamide] the “Emax (% Dual)” value (F508del/F508del CFTR) was 165 % Dual, the EC50 (F508del/F508del CFTR) was 799 nM and the EC50 (F508delCFTR; [1]) was 2800 nM. The EC50 (F508delCFTR; [2]) was 3810 nM and the “Maximum % activity (without co-corrector)” value (F508delCFTR; without co-corrector) was 520%.
With `COc1ccc(C)cc1[C@@]1(C(=O)NS(=O)(=O)c2cccc3nc(C)ccc23)C[C@H]1c1cccc(F)c1` (single isomer, unassigned) [Example 20] the “Emax (% Dual)” value (F508del/F508del CFTR) was 250 % Dual, the EC50 (F508del/F508del CFTR) was 1 nM and the EC50 (F508delCFTR; [1]) was 203 nM. The EC50 (F508delCFTR; [2]) was 244 nM and the “Maximum % activity (without co-corrector)” value (F508delCFTR; without co-corrector, 2 µM) was 716%.
For `CCOc1ccc([C@@H]2C[C@]2(C(=O)NS(=O)(=O)c2cccc3nc(C)ccc23)c2cc(C)ccc2OC)cn1` [Example 59, (1R,2S)-2-(6-ethoxypyridin-3-yl)-1-(2-methoxy-5-methylphenyl)-N-(2-methylquinoline-5-sulfonyl)cyclopropane-1-carboxamide], the “Emax (% Dual)” value (F508del/F508del CFTR) was 161 % Dual, the EC50 (F508del/F508del CFTR) was 63.8 nM and the EC50 (F508delCFTR; [1]) was 779 nM. The EC50 (F508delCFTR; [2]) was 1520 nM and the “Maximum % activity (without co-corrector)” value (F508delCFTR; without co-corrector) was 438%.
With `COc1ccc(C)cc1[C@]1(C(=O)NS(=O)(=O)c2cccc3nc(C)ccc23)C[C@@H]1c1ccc(C(C)C)nn1` [Example 69, (1S,2S)-1-(2-methoxy-5-methylphenyl)-N-(2-methylquinoline-5-sulfonyl)-2-[6-(propan-2-yl)pyridazin-3-yl]cyclopropane-1-carboxamide] the “Emax (% Dual)” value (F508del/F508del CFTR) was 111 % Dual, the EC50 (F508del/F508del CFTR) was greater than 300 nM and the EC50 (F508delCFTR; [1]) was 3430 nM. For the same compound, the “Maximum % activity (with co-corrector)” value (F508delCFTR; with co-corrector (2 μM)) was 495%, the EC50 (F508delCFTR; [2]) was 6010 nM and the “Maximum % activity (without co-corrector)” value (F508delCFTR; without co-corrector) was 170%.
With `COc1ccc([C@H]2C[C@@]2(C(=O)NS(=O)(=O)c2cccc3nc(C)ccc23)c2cc(C)ccc2OC)cn1` [Example 32, (1S,2R)-1-(2-methoxy-5-methylphenyl)-2-(6-methoxypyridin-3-yl)-N-(2-methylquinoline-5-sulfonyl)cyclopropane-1-carboxamide] the “Emax (% Dual)” value (F508del/F508del CFTR) was 259 % Dual, the EC50 (F508del/F508del CFTR) was 9.1 nM and the EC50 (F508delCFTR; [1]) was 1440 nM. It also gave an EC50 (F508delCFTR; [2]) of 2960 nM.
For `COc1ccc(C)cc1[C@@]1(C(=O)NS(=O)(=O)c2cccc3nc(C)ccc23)C[C@H]1c1ccc(C)cc1` (single isomer, unassigned) [Example 6], the “Emax (% Dual)” value (F508del/F508del CFTR) was 378 % Dual, the EC50 (F508del/F508del CFTR) was 5.3 nM and the EC50 (F508delCFTR; [1]) was 202 nM. The EC50 (F508delCFTR; [2]) was 187 nM and the “Maximum % activity (without co-corrector)” value (F508delCFTR; without co-corrector) was 982%.
`COCc1cccc([C@H]2C[C@@]2(C(=O)NS(=O)(=O)c2cccc3nc(C)ccc23)c2cc(C)ccc2OC)n1` [Example 90, (1S,2S)-1-(2-methoxy-5-methylphenyl)-2-[6-(methoxymethyl)pyridin-2-yl]-N-(2-methylquinoline-5-sulfonyl)cyclopropane-1-carboxamide] was tested, and the “Emax (% Dual)” value (F508del/F508del CFTR) was 348 % Dual, the EC50 (F508del/F508del CFTR) was 40.4 nM and the EC50 (F508delCFTR; [1]) was 900 nM. The EC50 (F508delCFTR; [2]) was 1720 nM and the “Maximum % activity (without co-corrector)” value (F508delCFTR; without co-corrector) was 812%.

From patent US20240043386A1, “Modulators of the Cystic Fibrosis Transmembrane Conductance Regulator Protein and Methods of Use” (AbbVie Global Enterprises Ltd., priority 2021, published 2024)
